Results as given in patent publication US11021444B2, “Antiviral compounds” (priority 2013, dated 2021).
pEC50, pIC50: −log10 of the molar value. Where two headings read alike, the source gives them in different places.

What was measured:
recombinant RSV complex = recombinant RSV complex (Human respiratory syncytial virus A, UniProt P28887); test: RSV Polymerase Inhibition Assay; type: biochemical
Procedure, shortened: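 10 nM recombinant RSV polymerase complex in Tris-HCl pH 7.5, 6 mM MgCl2 with RNA oligonucleotide template and radionucleotides, incubated 2 h at 30 °C with increasing inhibitor concentrations. Reaction stopped with EDTA; radiolabeled RNA product counted by scintillation.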

[1] = tested on: Respiratory Syncytial Virus (RSV) long strain; test: microbe, parasite or virus in culture; type: cell-based; settings: human respiratory syncytial virus, Tables A and B list compounds by EC50 band
Procedure, shortened: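 HEp-2 cells infected with 100 TCID50 virus per well, compounds in duplicate, 9-point 1/3 dilutions from 100 μM or 1 μM, 1% DMSO. After 5 days at 37 °C, cell viability (CPE protection) read by CCK-8 absorbance at 450 nm, 630 nm background.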

RSV replicon = test: microbe, parasite or virus in culture; type: cell-based; settings: human respiratory syncytial virus, read-out: EC50, the concentration of the drug required for reducing RSV replicon RNA by 50%
[2] = Cytotoxicity Determination (CCK-8, without addition of virus); type: cell-based; settings: human, 50% cytotoxicity concentration (CC50)
Procedure, shortened: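 HEp-2 cells were seeded at 1,500 cells/well one day before compound addition. Compounds were tested without virus in duplicate over 7 points from 100 μM in 1/2 steps, with 1% final DMSO, 5 days at 37 °C, 5% CO2. Viability was read by CCK-8 after 3-4 hours.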

[3] = HEp-2, 120 h, read-out: 50% effective concentration (EC50), HEp-2 cells infected with RSV long strain, 5 days, CCK-8 readout
[4] = 120 h, read-out: 50% effective concentration (EC50), HEp-2 cells infected with RSV long strain, 5 days, CCK-8 readout

Chain of recombinant RSV complex (P28887 whole entry): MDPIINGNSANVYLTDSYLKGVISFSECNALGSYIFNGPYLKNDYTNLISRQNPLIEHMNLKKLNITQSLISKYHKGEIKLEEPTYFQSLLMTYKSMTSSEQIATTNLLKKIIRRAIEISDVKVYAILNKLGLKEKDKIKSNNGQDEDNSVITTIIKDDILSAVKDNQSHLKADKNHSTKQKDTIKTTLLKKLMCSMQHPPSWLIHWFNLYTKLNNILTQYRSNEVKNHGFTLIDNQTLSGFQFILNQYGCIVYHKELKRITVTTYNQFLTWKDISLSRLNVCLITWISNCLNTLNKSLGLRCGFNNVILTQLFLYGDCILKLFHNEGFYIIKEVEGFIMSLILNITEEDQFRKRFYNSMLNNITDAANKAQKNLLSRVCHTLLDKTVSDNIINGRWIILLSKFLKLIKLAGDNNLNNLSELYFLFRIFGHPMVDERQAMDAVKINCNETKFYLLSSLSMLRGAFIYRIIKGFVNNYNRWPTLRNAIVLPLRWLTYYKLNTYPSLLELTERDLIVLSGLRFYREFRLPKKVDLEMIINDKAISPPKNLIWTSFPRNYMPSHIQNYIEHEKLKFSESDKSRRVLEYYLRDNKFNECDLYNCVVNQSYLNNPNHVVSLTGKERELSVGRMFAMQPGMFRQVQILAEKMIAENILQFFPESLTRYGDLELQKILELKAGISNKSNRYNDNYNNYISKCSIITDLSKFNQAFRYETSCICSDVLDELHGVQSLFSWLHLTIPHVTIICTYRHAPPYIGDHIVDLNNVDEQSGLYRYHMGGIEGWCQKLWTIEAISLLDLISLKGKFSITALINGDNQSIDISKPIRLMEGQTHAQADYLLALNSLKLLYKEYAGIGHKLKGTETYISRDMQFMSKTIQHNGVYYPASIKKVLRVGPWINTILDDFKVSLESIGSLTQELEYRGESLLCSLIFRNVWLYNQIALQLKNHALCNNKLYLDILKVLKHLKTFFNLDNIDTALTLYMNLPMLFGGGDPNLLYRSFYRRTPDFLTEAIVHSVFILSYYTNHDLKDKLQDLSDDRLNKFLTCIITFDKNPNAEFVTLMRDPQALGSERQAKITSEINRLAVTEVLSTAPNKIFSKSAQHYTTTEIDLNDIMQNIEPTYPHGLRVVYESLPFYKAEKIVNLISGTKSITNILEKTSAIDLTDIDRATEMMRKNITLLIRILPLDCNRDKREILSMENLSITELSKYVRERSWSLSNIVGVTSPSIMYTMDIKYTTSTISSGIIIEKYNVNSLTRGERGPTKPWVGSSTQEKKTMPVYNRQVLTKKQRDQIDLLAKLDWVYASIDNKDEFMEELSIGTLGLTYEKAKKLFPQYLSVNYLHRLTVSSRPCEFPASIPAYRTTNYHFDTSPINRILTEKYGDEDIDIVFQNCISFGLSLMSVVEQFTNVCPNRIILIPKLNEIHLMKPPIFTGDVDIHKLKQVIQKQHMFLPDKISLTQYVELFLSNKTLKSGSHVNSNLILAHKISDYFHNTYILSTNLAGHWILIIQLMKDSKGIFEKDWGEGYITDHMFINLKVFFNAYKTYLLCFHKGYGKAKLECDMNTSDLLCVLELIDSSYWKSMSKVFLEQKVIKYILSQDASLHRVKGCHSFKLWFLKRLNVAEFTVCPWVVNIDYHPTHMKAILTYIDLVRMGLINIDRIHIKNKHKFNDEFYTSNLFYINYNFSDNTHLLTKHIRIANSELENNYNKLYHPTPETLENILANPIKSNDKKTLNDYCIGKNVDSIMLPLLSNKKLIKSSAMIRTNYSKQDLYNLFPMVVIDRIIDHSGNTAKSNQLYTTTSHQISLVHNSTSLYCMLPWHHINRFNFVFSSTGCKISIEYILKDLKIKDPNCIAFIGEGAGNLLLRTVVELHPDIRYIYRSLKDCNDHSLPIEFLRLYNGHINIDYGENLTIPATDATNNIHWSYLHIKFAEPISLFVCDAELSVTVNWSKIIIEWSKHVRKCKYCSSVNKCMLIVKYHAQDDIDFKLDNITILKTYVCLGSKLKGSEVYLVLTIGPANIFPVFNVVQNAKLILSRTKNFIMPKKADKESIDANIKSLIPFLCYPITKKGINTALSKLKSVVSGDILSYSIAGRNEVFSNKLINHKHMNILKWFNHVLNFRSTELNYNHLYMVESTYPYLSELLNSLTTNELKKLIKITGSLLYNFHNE
Chain of recombinant RSV complex (P03421 whole entry, further chain): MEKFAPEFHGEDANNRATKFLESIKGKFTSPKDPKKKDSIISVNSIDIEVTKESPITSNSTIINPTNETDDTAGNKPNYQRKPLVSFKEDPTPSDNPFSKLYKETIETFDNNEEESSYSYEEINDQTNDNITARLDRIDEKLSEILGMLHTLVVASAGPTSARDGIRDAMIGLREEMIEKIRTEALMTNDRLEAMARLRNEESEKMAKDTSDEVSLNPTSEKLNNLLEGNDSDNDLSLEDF

| Structure (SMILES) | pIC50 (recombinant RSV complex) | pEC50 [1, 3] | pEC50 (RSV replicon) | CC50 at 5 days [2] | pEC50 [1, 4] |
| --- | --- | --- | --- | --- | --- |
| COc1cc(C(=O)NCC(O)(c2cc(C(C)(N)CO)cc(-c3ccc(F)c(Cl)c3)n2)C(F)(F)F)ccc1OC1CC1 (stereo not shown) [Compound 533] | > 6.00 | > 6.00 | > 6.00 | 10 to 100 µM | – |
| COc1cc(C(=O)NCC(O)(c2cc(C(C)(N)CF)cc(-c3ccc(F)c(Cl)c3)n2)C(F)(F)F)ccc1OC1CC1 (stereo not shown) [Compound 534] | > 6.00 | > 6.00 | > 6.00 | 10 to 100 µM | – |
| COCC(C)(N)c1cc(-c2ccc(F)c(Cl)c2)nc(C(O)(CNC(=O)c2ccc(OC3CC3)c(OC)c2)C(F)(F)F)c1 (stereo not shown) [Compound 535] | > 6.00 | > 6.00 | > 6.00 | 10 to 100 µM | – |
| COc1cc(C(=O)NCC(O)(c2cc(C(C)(N)C(N)=O)cc(-c3ccc(F)c(Cl)c3)n2)C(F)(F)F)ccc1OC1CC1 (stereo not shown) [Compound 536] | > 6.00 | > 6.00 | > 6.00 | 10 to 100 µM | – |
| COc1cc(C(=O)NCC(O)(c2cc3c(c(-c4ccc(F)cc4)n2)OCC3(C)CN)C(F)(F)F)ccc1OC1CC1 (stereo not shown) [Compound 538] | > 6.00 | > 6.00 | > 6.00 | 10 to 100 µM | – |
| COc1cc(C(=O)NCC(O)(c2cc3c(c(-c4ccc(F)cc4)n2)OCC3(C)N)C(F)(F)F)ccc1OCCO (stereo not shown) [Compound 539] | > 6.00 | > 6.00 | > 6.00 | 10 to 100 µM | – |
| COc1cc(C(=O)NCC(O)(c2cc(C(C)(N)CF)cc(-c3ccc(F)c(Cl)c3)n2)C(F)(F)F)ccc1OCCO (stereo not shown) [Compound 540] | > 6.00 | – | > 6.00 | 10 to 100 µM | > 6.00 |
| COc1cc(C(=O)NCC(O)(c2cc3c(c(-c4ccc(F)cc4)n2)OCC3(C)N)C(F)(F)F)ccc1OCC(N)=O (stereo not shown) [Compound 543] | > 6.00 | > 6.00 | > 6.00 | 10 to 100 µM | – |
| COc1cc(C(=O)NC[C@@](O)(c2cc(C(C)(C)N)cc(-c3ccc(F)cc3)n2)C(F)(F)F)ccc1OC[C@@H](C)O [Compound 545] | > 6.00 | > 6.00 | > 6.00 | 10 to 100 µM | – |
| COc1cc(C(=O)NC[C@](O)(c2cc(C(C)(C)N)cc(-c3ccc(F)cc3)n2)C(F)(F)F)ccc1OC[C@@H](C)O [Compound 546] | > 6.00 | > 6.00 | > 6.00 | 10 to 100 µM | – |
| COc1cc(C(=O)NC[C@@](O)(c2cc(C(C)(C)N)cc(-c3ccc(F)c(Cl)c3)n2)C(F)(F)F)ccc1OCC(N)=O [Compound 547] | > 6.00 | > 6.00 | > 6.00 | 10 to 100 µM | – |
| COc1cc(C(=O)NC[C@](O)(c2cc(C(C)(C)N)cc(-c3ccc(F)c(Cl)c3)n2)C(F)(F)F)ccc1OCC(N)=O [Compound 548] | > 6.00 | > 6.00 | > 6.00 | 10 to 100 µM | – |
| COc1cc(C(=O)NC[C@@](O)(c2cc(C(C)(C)N)cc(-c3ccc(F)c(Cl)c3)n2)C(F)(F)F)ccc1OC[C@@H](C)O [Compound 551] | > 6.00 | > 6.00 | > 6.00 | 10 to 100 µM | – |
| COc1cc(C(=O)NC[C@](O)(c2cc(C(C)(C)N)cc(-c3ccc(F)c(Cl)c3)n2)C(F)(F)F)ccc1OC[C@@H](C)O [Compound 552] | > 6.00 | > 6.00 | > 6.00 | 10 to 100 µM | – |
| COc1cc(C(=O)NC[C@](O)(c2cc(C(C)(C)N)cc(-c3ccc(F)cc3)n2)C(F)(F)F)ccc1OCCO [Compound 554] | > 6.00 | > 6.00 | > 6.00 | 10 to 100 µM | – |
| COc1cc(C(=O)NCC(O)(c2cc3c(c(-c4ccc(F)cc4)n2)OCC3(C)N)C(F)(F)F)ccc1OC[C@@H](C)O (stereo partly shown) [Compound 556] | > 6.00 | > 6.00 | > 6.00 | 10 to 100 µM | – |

| Structure (SMILES) | pIC50 (recombinant RSV complex) | pEC50 [1, 3] | pEC50 (RSV replicon) | CC50 at 5 days [2] | pEC50 [1, 4] |
| --- | --- | --- | --- | --- | --- |
| COc1cc(C(=O)NCC(O)(c2cc(C(C)(C)N)cc(-c3ccnc(Cl)c3)n2)C(F)(F)F)ccc1OC1CC1 (stereo not shown) [Compound 558] | > 6.00 | > 6.00 | > 6.00 | 10 to 100 µM | – |
| COc1cc(C(=O)NCC(O)(c2cc3c(c(-c4ccc(F)cc4)n2)OCC3(N)C(C)C)C(F)(F)F)ccc1OC1CC1 (stereo not shown) [Compound 560] | > 6.00 | – | > 6.00 | 10 to 100 µM | > 6.00 |
| COc1cc(C(=O)NC[C@@](O)(c2cc(C(C)(C)N)cc(-c3ccc(F)cc3)n2)C(F)(F)F)ccc1OCC(N)=O [Compound 561] | > 5.00 | 4.30 to 6.00 | > 6.00 | > 100 µM | – |
| COc1cc(C(=O)NC[C@](O)(c2cc(C(C)(C)N)cc(-c3ccc(F)cc3)n2)C(F)(F)F)ccc1OCC(N)=O [Compound 562] | > 6.00 | > 6.00 | > 6.00 | > 100 µM | – |
| COc1cc(C(=O)NCC(O)(c2cc([C@@]3(C)CCN3)cc(-c3ccc(F)c(Cl)c3)n2)C(F)(F)F)ccc1OC1CC1 (stereo partly shown) [Compound 563] | > 6.00 | > 6.00 | > 6.00 | 10 to 100 µM | – |
| CC(C)(N)c1cc(-c2ccc(F)cc2)nc(C(O)(CNC(=O)c2ccc3c(c2)CC(=O)N3)C(F)(F)F)c1 (stereo not shown) [Compound 571] | > 6.00 | > 6.00 | > 6.00 | 10 to 100 µM | – |
| COc1cc(C(=O)NCC(C)(O)c2cc(C(C)(C)N)cc(-c3ccc(F)cc3)n2)ccc1OC1CC1 (stereo not shown) [Compound 574] | > 6.00 | > 6.00 | > 6.00 | 10 to 100 µM | – |
| COc1cc(C(=O)NCC(O)(c2cc(C(C)(C)NC3CCC3)cc(-c3ccc(F)c(Cl)c3)n2)C(F)(F)F)ccc1OC1CC1 (stereo not shown) [Compound 575] | > 6.00 | > 6.00 | > 6.00 | 10 to 100 µM | – |
| COc1cc(C(=O)NCC(O)(c2cc(C(C)(C)NC3COC3)cc(-c3ccc(F)c(Cl)c3)n2)C(F)(F)F)ccc1OC1CC1 (stereo not shown) [Compound 577] | > 6.00 | > 6.00 | > 6.00 | 10 to 100 µM | – |
| COc1cc(C(=O)NCC(O)(c2cc(C(C)(C)NC(C)=N)cc(-c3ccc(F)c(Cl)c3)n2)C(F)(F)F)ccc1OC1CC1 (stereo not shown) [Compound 579] | > 6.00 | > 6.00 | > 6.00 | 10 to 100 µM | – |
| COc1cc(C(=O)NCC(O)(c2cc(C(C)(C)N)cc(-c3ccc(F)cc3)n2)C(F)(F)F)ccc1OCC(N)=O (stereo not shown) [Compound 580] | > 6.00 | – | > 6.00 | > 100 µM | > 6.00 |
| COc1cc(C(=O)NCC(O)(c2cc(C(C)(C)N)cc(-c3ccc(F)cc3)n2)C(F)(F)F)ccc1OC[C@@H](C)O (stereo partly shown) [Compound 586] | > 6.00 | > 6.00 | > 6.00 | 10 to 100 µM | – |
| COc1cc(C(=O)NCC(O)(c2cc(C(C)(C)N)c(OC)c(-c3ccc(F)cc3)n2)C(F)(F)F)ccc1OC1CC1 (stereo not shown) [Compound 594] | > 6.00 | > 6.00 | > 6.00 | 10 to 100 µM | – |
| COc1cc(C(=O)NCC(O)(c2cc(C3(N)COC3)cc(-c3ccc(F)cc3)n2)C(F)(F)F)ccc1OC1CC1 (stereo not shown) [Compound 595] | > 6.00 | > 6.00 | > 6.00 | 10 to 100 µM | – |
| COc1cc(C(=O)NCC(O)(c2cc(C(C)(C)N)cc(-c3ccc(F)cc3)n2)C(F)(F)F)ccc1OC1CC(O)C1 (stereo not shown) [Compound 596] | > 6.00 | > 6.00 | > 6.00 | 10 to 100 µM | – |
